Data on one molecule can be found in US20080207532A1, “Use of Nordihydroguaiaretic Acid Derivatives in the Treatment of Drug Resistant Cancer, Viral and Microbial Infection” (Johns Hopkins University, priority 2004, published 2008).

In one data set the test system is MCF-7 cells. As to the kind of experiment: MTT cell proliferation assay, MCF-7 cells in culture. The note with it: 72 hours. Format: cell-based, human. Here is the method: (§1) MCF-7 cells (a human mammary carcinoma cell line, obtainable from the ATCC P.O. Box 1549, Manassas, Va. 20108) were seeded into 24-well plates at 1.5×10^4 cells/well in 500 μl of Dulbecco's modified Eagle's medium (DMEM) containing 10% fetal bovine serum (FBS) and the antibiotics penicillin and streptomycin. Varying concentrations of M4N were added the next day. After incubation for an additional 3 days, cell proliferation was assessed by the MTT assay. […] The mice were assigned to a treatment group that received M4N dissolved in a 6% Cremaphor EL, 6% ethanol and 88% saline, and to a control group that received the vehicle only. […] Mice received a single daily 100 μL intraperitoneal (i.p.) injection containing 2 mg of M4N for 3 weeks. The control mice received an equal volume of the vehicle. […] The results from the individual mice were combined and the average tumor volume was determined. Statistical significance of the mean differences in tumor volume was assessed by Student's t-test.
(In general: Tetrazolium assays rely on reduction of a dye to a coloured formazan, in cell work by metabolically active cells.)

The subject of the next data set is MCF-7 xenografts. Nature of the data set: MCF-7 xenografts in nude mice, M4N i.p. or oral. The note with it: 21 days systemic treatment, IP injection daily or oral feeding in food balls. Format: in vivo. Here is the method: as §1
A further data set concerns NCI/ADR-RES xenografts. Nature of the data set: NCI/ADR-RES xenografts in nude mice, M4N i.p. or oral. Format: in vivo. The note with it: 21 days systemic treatment, IP injection daily or oral feeding in food balls. Here is the method: as §1
For the next data set, the system named is NCI/ADR-RES cells. Nature of the data set: SRB cytotoxicity assay with median-effect / combination index analysis. The note with it: for IC50: NCI/ADR-RES. It counts as cell-based, human. For orientation: The SRB assay estimates cell density from bound dye.
In another data set the test system is MDR1 mRNA. Nature of the data set: RT-PCR of MDR1 mRNA in NCI/ADR-RES cells. The note with it: 20 μM M4N, three days. It counts as cell-based, human. Here is the method:
Total RNA was isolated using the Trizol Reagent (Invitrogen, Carlsbad, Calif.). RT-PCR was carried out with the Superscript II One-Step RT-PCR system with Platinum Taq DNA Polymerase (Invitrogen) according to the manufacturer's protocol using oligonucleotide primers specific for MDR1: […]
The RT-PCR products were separated by agarose gel electrophoresis and stained with ethidium bromide. Relative band intensities were quantified by ImageJ software (NIH, Bethesda, Md.).
We next examined the effect of M4N on MDR1 gene expression to determine whether the observed synergy between M4N and Dox and paclitaxel in multidrug resistant cells is the result of reversal of the MDR phenotype. We postulated that M4N, through its ability to inhibit Sp1 binding, might down regulate MDR1 gene expression. To examine this possibility, NCI/ADR-RES cells were exposed to 0, 5, 10 and 20 μM M4N for three days, after which total RNA and protein were examined for levels of MDR1 mRNA and Pgp. […] The levels of Pgp were normalized to cyclin B1, whose expression, according to our previous results, is unaffected by M4N (4, 5).

The subject of data set [1] is NCI/ADR-RES multidrug resistant breast cancer xenografts. Nature of the data set: combination therapy against NCI/ADR-RES xenografts in nude mice. The note with it: two weeks. Here is the method: Nude mice bearing NCI/ADR-RES multidrug resistant breast cancer xenografts were used as a model for combination therapy to further examine synergy between M4N and paclitaxel.
T-cell deficient female nude (nu/nu) mice, 5-6 weeks of age, were purchased from Charles River Laboratories (Wilmington, Mass.) and were housed in a pathogen-free room. All experiments involving the mice were carried out in accordance with the Johns Hopkins University Animal Care and Use Committee guideline. The mice were implanted subcutaneously in both flanks with 1×10^6 NCI/ADR-RES cells suspended in Hank's balanced salt solution (HBSS). […] For intraperitoneal (i.p.) administration, M4N, maltose-M3N and paclitaxel were dissolved in a recently developed reduced cremophor solution containing 20% (v) dehydrated ethanol, 20% (v) Cremophor EL, PEG 300, <11% (v) Tween 80 (22). Daily injections of 0.05 ml were performed for each drug and drug combination.
Tumors were measured in two perpendicular dimensions once every seven days, and the tumor volumes were calculated according to the following formula: […]
where a is the width of the tumor (smaller diameter) and b is the length (larger diameter) (23). The mean tumor volume and standard error were calculated for each treatment group. Relative mean tumor volumes, (V/V0), where V is the mean tumor volume at a particular time and V0 is the mean tumor volume at day 0 (23), were determined and used to assess tumor growth inhibition (T/C value) using the following equation:
T/C(%)=Relative Mean Tumor Volume of treated/Relative Mean Volume of control×100.
The NCI standard for the minimal level for antitumor activity (T/C≦42%) was adopted (25). At the termination of the experiment the tumors were excised and fixed in formaldehyde. Tissue samples were then sent to Paragon Bioservices for histology and immunohistochemistry using antibodies against human P-glycoprotein (Pgp).
Two dosage regimens of M4N and paclitaxel, both with a constant molar ratio of 20:1 (M4N:paclitaxel), were employed as determined by in vitro testing to be synergistic as shown in Table 1. The 8 and 16 μmol m^2 doses of pactitaxel were submaximal based on values from other studies (22) and the M4N doses of 160 and 320 μmol/m^2 were arrived at by decreasing the maximum tolerated dose used in our previous study with MCF-7 breast cancer xenografts (5). An additional NDGA derivative was also tested. Maltose-M3N was developed as a water soluble alternative to M4N, however for consistency it was dissolved in the same reduced cremophor solvent system as M4N and paclitaxel for this study.

Another data set is described as follows: solubility in water. Format: physicochemical.
Another data set concerns MCF-7. The note with it: MCF-7; read-out: IC50 from previous studies; cited from earlier work.
For data set [2] the following is noted: mouse, IP, IV and oral; cited from earlier work.
For data set [3] the following is noted: dogs and rabbits, subcutaneous, intravaginal and IV formulations; cited from earlier work.
For data set [4] the following is noted: clinical trials to date; cited from earlier work.
Where [5] appears, read: M4N/Dox combination 2.4:1, NCI/ADR-RES.
Setting [6] is: M4N/paclitaxel combination 20:1, NCI/ADR-RES.
Setting [7] is: higher regimen: M4N or Mal-M3N 320, Px 16 μmoles/m^2, i.p. daily.
The mark [8] stands for this setting: lower regimen: M4N 160, Px 8 μmoles/m^2, i.p. daily.

Where “and” joins values, the source holds several entries; their conditions need not be identical. Identical values can stand only once. Like-named read-outs stand apart in the source and are kept apart here.

Take `COc1ccc(C[C@@H](C)[C@@H](C)Cc2ccc(OC)c(OC)c2)cc1OC` [M4N, tetra-o-methyl nordihydroguaiaretic acid]: the “M4N required to achieve a total cell arrest” value with MCF-7 cells amounted to 20 µM. The “tumor sizes of xenografts” value in the data set with MCF-7 xenografts and in the data set on NCI/ADR-RES xenografts was “greatly reduced the tumor sizes” throughout. Moreover, the “DRI value at ED75” value in the data set on NCI/ADR-RES cells (setting [5]) stood at 5.94; in the data set on NCI/ADR-RES cells (setting [6]), 3.98. For the same molecule, the results for the “DRI value at ED90” value in the data set with NCI/ADR-RES cells (setting [5]) and in the data set on NCI/ADR-RES cells (setting [6]) were 24.26 and 5.76, respectively. The “DRI value at ED95” value is 63.16 in the data set with NCI/ADR-RES cells (setting [5]) and 7.40 in the data set with NCI/ADR-RES cells (setting [6]). For the same molecule, the IC50 with NCI/ADR-RES cells (three days, combinations at molar ratio 2.4:1 (M4N:Dox) or 20:1 (M4N:paclitaxel), given as M4N + second drug, read-out: Dm, median effect dose (concentration that inhibits cell growth by 50%)) was 9.14 µM and 8.19 µM; in the data set with NCI/ADR-RES cells (single agent, read-out: average IC50), 8.67 µM; with MCF-7, ~7 µM. Moreover, the “level of MDR1 mRNA, of the untreated value, normalized to GAPDH” value in the data set with MDR1 mRNA worked out at 36.3%. Also, the Deaths in data set [1] (setting [7]) and in [1] (setting [8]) was 0/7 each time. The “Relative Mean Tumor Volume” value came to 1.33 in [1] (setting [7]) and 1.70 in data set [1] (setting [8]). Moreover, the T/C % in [1] (setting [7]) is recorded as 50.8%; in [1] (setting [8]), 64.9%. Besides, the “Mean Body Weight Change” value in [1] (setting [8]) is “+0.2 g/mouse”. Further, in “solubility in water”, the “solubility in aqueous solution” value is “limited solubility”. Further, the “level of drug in the blood” value in data set [2] was “extremely low and only presents transiently”. Besides, the “amount of drug in the blood” value in data set [3] is “barely detectable”. For the same molecule, the “systemic side effects (gastrointestinal problems, anemia, hair loss)” value in [4] is on record as “has not caused the systemic side effects”.
